Experimental data as given in BigSolDB 2.1.

O=C1OC(=O)[C@H]2[C@@H]1[C@@H]1C=C[C@H]2O1
solubility (mole fraction)
Conditions	278.15 K	283.15 K	288.15 K	293.15 K	298.15 K	303.15 K	308.15 K	313.15 K	318.15 K	323.15 K
in 1,4-dioxane	–	–	0.0221	0.0275	0.0342	0.0421	0.052	0.0682	0.0869	0.131
in acetone	0.0386	0.0439	0.0477	0.0551	0.0617	0.0703	0.0814	0.0929	0.104	0.126
in ethanol	0.000635	0.00076	0.00091	0.00102	0.00124	0.00145	0.00169	0.00202	0.00238	0.00292
in ethyl acetate	0.0152	0.0165	0.02	0.0223	0.0274	0.0309	0.0364	0.0414	0.0475	0.0559
in methyl acetate	0.0225	0.028	0.0297	0.0357	0.0416	0.0483	0.0587	0.068	0.0805	0.0963
